Results reported in the supplement of paper PMC10307832.

How the values were obtained:
Assay in all cases: relative viability (nuclei count vs DMSO), 5 days (fraction); higher = more cells survive
BMX-IN-1 + Alpelisib = compound: C=CC(=O)Nc1cc(-n2c(=O)ccc3cnc4ccc(-c5ccc(NS(C)(=O)=O)cc5)cc4c32)ccc1C [BMX-IN-1] + Cc1nc(NC(=O)N2CCC[C@H]2C(N)=O)sc1-c1ccnc(C(C)(C)C(F)(F)F)c1 [Alpelisib] (partner 2 µM)
Summary of the method: (§1)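 One day after seeding in 1536-well plates, lung cancer cell lines were dosed by pin tool. Dosing was either single-drug or a fixed anchor-drug dose plus five library-drug doses (not always all listed) in √10 steps. After 5 days, nuclei were stained in one fix-and-stain step and counted on 4× images, and relative viability is the nuclei count of treated wells over that of vehicle wells, given as the median of duplicate plates.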

PAC-1 + Tozasertib = compound: C=CCc1cccc(/C=N/NC(=O)CN2CCN(Cc3ccccc3)CC2)c1O [PAC-1] + Cc1cc(Nc2cc(N3CCN(C)CC3)nc(Sc3ccc(NC(=O)C4CC4)cc3)n2)n[nH]1 [Tozasertib] (partner 0.1 µM)
Summary of the method: as §1

PAC-1 + Dasatinib = compound: C=CCc1cccc(/C=N/NC(=O)CN2CCN(Cc3ccccc3)CC2)c1O [PAC-1] + Cc1nc(Nc2ncc(C(=O)Nc3c(C)cccc3Cl)s2)cc(N2CCN(CCO)CC2)n1 [Dasatinib] (partner 0.075 µM)
Summary of the method: as §1

BMX-IN-1 + Pemetrexed = compound: C=CC(=O)Nc1cc(-n2c(=O)ccc3cnc4ccc(-c5ccc(NS(C)(=O)=O)cc5)cc4c32)ccc1C [BMX-IN-1] + Nc1nc2[nH]cc(CCc3ccc(C(=O)N[C@@H](CCC(=O)O)C(=O)O)cc3)c2c(=O)[nH]1 [Pemetrexed] (partner 0.2 µM)
Summary of the method: as §1

BMX-IN-1 + Vorinostat = compound: C=CC(=O)Nc1cc(-n2c(=O)ccc3cnc4ccc(-c5ccc(NS(C)(=O)=O)cc5)cc4c32)ccc1C [BMX-IN-1] + O=C(CCCCCCC(=O)Nc1ccccc1)NO [Vorinostat] (partner 1 µM)
Summary of the method: as §1

NCI-H1755
relative viability (BMX-IN-1 + Alpelisib; first compound 0.02 µM): 1.01 | relative viability (BMX-IN-1 + Alpelisib; first compound 0.2 µM): 1.23 | relative viability (BMX-IN-1 + Alpelisib; first compound 0.6325 µM): 1.06 | relative viability (BMX-IN-1 + Alpelisib; first compound 2 µM): 0.965 | relative viability (PAC-1 + Tozasertib; first compound 0.02 µM): 0.541 | relative viability (PAC-1 + Tozasertib; first compound 0.06325 µM): 0.587 | relative viability (PAC-1 + Tozasertib; first compound 0.2 µM): 0.506 | relative viability (PAC-1 + Tozasertib; first compound 2 µM): 0.512 | relative viability (PAC-1 + Dasatinib; first compound 0.02 µM): 0.426 | relative viability (PAC-1 + Dasatinib; first compound 0.06325 µM): 0.446 | relative viability (PAC-1 + Dasatinib; first compound 0.2 µM): 0.384 | relative viability (PAC-1 + Dasatinib; first compound 2 µM): 0.443 | relative viability (BMX-IN-1 + Pemetrexed; first compound 0.02 µM): 0.41 | relative viability (BMX-IN-1 + Pemetrexed; first compound 0.2 µM): 0.6 | relative viability (BMX-IN-1 + Pemetrexed; first compound 0.6325 µM): 0.39 | relative viability (BMX-IN-1 + Pemetrexed; first compound 2 µM): 0.552 | relative viability (BMX-IN-1 + Vorinostat; first compound 0.02 µM): 0.72 | relative viability (BMX-IN-1 + Vorinostat; first compound 0.2 µM): 0.849 | relative viability (BMX-IN-1 + Vorinostat; first compound 0.6325 µM): 0.812 | relative viability (BMX-IN-1 + Vorinostat; first compound 2 µM): 0.8

NCI-H1793
relative viability (BMX-IN-1 + Alpelisib; first compound 0.02 µM): 1.14 | relative viability (BMX-IN-1 + Alpelisib; first compound 0.2 µM): 0.873 | relative viability (BMX-IN-1 + Alpelisib; first compound 0.6325 µM): 0.665 | relative viability (BMX-IN-1 + Alpelisib; first compound 2 µM): 0.563 | relative viability (PAC-1 + Tozasertib; first compound 0.02 µM): 0.316 | relative viability (PAC-1 + Tozasertib; first compound 0.06325 µM): 0.338 | relative viability (PAC-1 + Tozasertib; first compound 0.2 µM): 0.439 | relative viability (PAC-1 + Tozasertib; first compound 2 µM): 0.238 | relative viability (PAC-1 + Dasatinib; first compound 0.02 µM): 0.373 | relative viability (PAC-1 + Dasatinib; first compound 0.06325 µM): 0.373 | relative viability (PAC-1 + Dasatinib; first compound 0.2 µM): 0.364 | relative viability (PAC-1 + Dasatinib; first compound 2 µM): 0.412 | relative viability (BMX-IN-1 + Pemetrexed; first compound 0.02 µM): 0.945 | relative viability (BMX-IN-1 + Pemetrexed; first compound 0.2 µM): 1.01 | relative viability (BMX-IN-1 + Pemetrexed; first compound 0.6325 µM): 0.966 | relative viability (BMX-IN-1 + Pemetrexed; first compound 2 µM): 0.806 | relative viability (BMX-IN-1 + Vorinostat; first compound 0.02 µM): 0.998 | relative viability (BMX-IN-1 + Vorinostat; first compound 0.2 µM): 0.563 | relative viability (BMX-IN-1 + Vorinostat; first compound 0.6325 µM): 0.856 | relative viability (BMX-IN-1 + Vorinostat; first compound 2 µM): 0.849

NCI-H1915
relative viability (BMX-IN-1 + Alpelisib; first compound 0.02 µM): 1.08 | relative viability (BMX-IN-1 + Alpelisib; first compound 0.2 µM): 1.03 | relative viability (BMX-IN-1 + Alpelisib; first compound 0.6325 µM): 1.04 | relative viability (BMX-IN-1 + Alpelisib; first compound 2 µM): 1.13 | relative viability (PAC-1 + Tozasertib; first compound 0.02 µM): 0.421 | relative viability (PAC-1 + Tozasertib; first compound 0.06325 µM): 0.436 | relative viability (PAC-1 + Tozasertib; first compound 0.2 µM): 0.411 | relative viability (PAC-1 + Tozasertib; first compound 2 µM): 0.428 | relative viability (PAC-1 + Dasatinib; first compound 0.02 µM): 0.313 | relative viability (PAC-1 + Dasatinib; first compound 0.06325 µM): 0.336 | relative viability (PAC-1 + Dasatinib; first compound 0.2 µM): 0.317 | relative viability (PAC-1 + Dasatinib; first compound 2 µM): 0.29 | relative viability (BMX-IN-1 + Pemetrexed; first compound 0.02 µM): 0.585 | relative viability (BMX-IN-1 + Pemetrexed; first compound 0.2 µM): 0.522 | relative viability (BMX-IN-1 + Pemetrexed; first compound 0.6325 µM): 0.484 | relative viability (BMX-IN-1 + Pemetrexed; first compound 2 µM): 0.396 | relative viability (BMX-IN-1 + Vorinostat; first compound 0.02 µM): 0.576 | relative viability (BMX-IN-1 + Vorinostat; first compound 0.2 µM): 0.531 | relative viability (BMX-IN-1 + Vorinostat; first compound 0.6325 µM): 0.564 | relative viability (BMX-IN-1 + Vorinostat; first compound 2 µM): 0.53

NCI-H1944
relative viability (BMX-IN-1 + Alpelisib; first compound 0.02 µM): 0.858 | relative viability (BMX-IN-1 + Alpelisib; first compound 0.2 µM): 0.931 | relative viability (BMX-IN-1 + Alpelisib; first compound 0.6325 µM): 0.921 | relative viability (BMX-IN-1 + Alpelisib; first compound 2 µM): 0.798 | relative viability (PAC-1 + Tozasertib; first compound 0.02 µM): 0.231 | relative viability (PAC-1 + Tozasertib; first compound 0.06325 µM): 0.247 | relative viability (PAC-1 + Tozasertib; first compound 0.2 µM): 0.236 | relative viability (PAC-1 + Tozasertib; first compound 2 µM): 0.246 | relative viability (PAC-1 + Dasatinib; first compound 0.02 µM): 0.209 | relative viability (PAC-1 + Dasatinib; first compound 0.06325 µM): 0.222 | relative viability (PAC-1 + Dasatinib; first compound 0.2 µM): 0.204 | relative viability (PAC-1 + Dasatinib; first compound 2 µM): 0.216 | relative viability (BMX-IN-1 + Pemetrexed; first compound 0.02 µM): 0.632 | relative viability (BMX-IN-1 + Pemetrexed; first compound 0.2 µM): 0.746 | relative viability (BMX-IN-1 + Pemetrexed; first compound 0.6325 µM): 0.603 | relative viability (BMX-IN-1 + Pemetrexed; first compound 2 µM): 0.592 | relative viability (BMX-IN-1 + Vorinostat; first compound 0.02 µM): 0.519 | relative viability (BMX-IN-1 + Vorinostat; first compound 0.2 µM): 0.659 | relative viability (BMX-IN-1 + Vorinostat; first compound 0.6325 µM): 0.598 | relative viability (BMX-IN-1 + Vorinostat; first compound 2 µM): 0.578
